Test results as given in PMC7180456, “Multitarget Anticancer Agents Based on Histone Deacetylase and Protein Kinase CK2 Inhibitors” (Molecules, 2020).
Like-named read-outs stand apart in the source and are kept apart here.

Experiments:
human recombinant HDAC1 = biological target: T1, human recombinant HDAC1 (Homo sapiens, UniProt Q13547); test: HDAC1 inhibition, fluorometric method (Enzo Fluorometric Drug Discovery Assay Kit); format: biochemical; details: read-out: Inhibitory activity IC50 on HDAC1
T1 construct: purchased Enzo Life Sciences, Inc
Protocol: The inhibitory activities of the synthesized compounds were determined against CK2 and HDAC1 and the IC50 values are collected in Table 1. The activity towards human recombinant HDAC1 was tested using a fluorometric method. CK2 inhibitory activity was determined by a radiometric method, using a short peptide ([…]) as a substrate.
15 µL of HDAC1 (0.4 µg/well) or HDAC6 (0.5 µg/well) were incubated at 37 °C for 30 minutes with 10 µL of inhibitor diluted in 5% DMSO and 25 µL of fluorogenic substrate (0.05 µL/well of 5 mM solution). Reactions were stopped with the developer and trichostatin A, diluted in buffer without BSA, and the plate was incubated at 30 °C for 45 min, followed by measuring the fluorescence (Ex. 360 nm, Em. 450 nm, Fluoroskan, Thermo Scientific).

human recombinant CK2α = biological target: T2, human recombinant CK2α (Homo sapiens, UniProt P68400); test: CK2 inhibition, radiometric method with peptide substrate […]; format: biochemical; details: radiometric method, 20 µM ATP; read-out: Inhibitory activity IC50 on CK2
T2 construct: GST; made in house; host or cells: bacteria
Protocol: The activity towards human recombinant HDAC1 was tested using a fluorometric method. CK2 inhibitory activity was determined by a radiometric method, using a short peptide ([…]) as a substrate.
Recombinant human protein kinase GST-CK2 was produced in bacteria and purified as described elsewhere. […] The reaction buffer contained 20 µM [γ-32P] ATP (specific radioactivity 300–1000 cpm/pmol), 15 mM Mg^2+, 20 mM Tris–HCl pH 7.5, and 6 mM 2-mercaptoethanol. 10 µL of the assay mixture was spotted onto a square (1 cm/1 cm) of Whatman P81 paper and allowed to dry. Each square was immersed in cold 0.5% phosphoric acid, and washed three times during 10 min, allowed to dry and transferred into a vessel containing Opti-Phase liquid (scintillation solution) and radioactivity was quantified using a scintillation counter (MicroBeta, Perkin Elmer) by Cerenkov counting. All experiments were performed in triplicate. IC50 values were calculated using GraphPad Prism (version 4.0) software.

[1] = Cytotoxicity, trypan blue exclusion assay, 24 h (pseudonormal cells); details: human, HEK293 embryonic kidney cells (pseudonormal)
Protocol: (§1) Walter Berger, Institute of Cancer Research, Vienna Medical University. Human embryonal kidney cells of HEK293 line were obtained from cell culture collection of R.E. Kavetsky Institute of Experimental Pathology, Oncology and Radiobiology, National Academy of Sciences of Ukraine (Kyiv, Ukraine).
(§2) Cells were seeded (5 × 10^5/mL for leukemia cells and 1 × 10^5/mL for carcinoma cells) into 24-well tissue culture plates (Greiner Bio-one, Frickenhausen, Germany) and were permitted to adhere and grow for 24 h before the experiment. Short-term (24 h) cytotoxic effect of antitumor drugs was studied under the Evolution 300 Trino microscope (Delta Optical, Nowe Osiny, Poland) after cell staining with trypan blue dye (0.1%).
(§3) Final concentration of DMSO in cell culture was 0.5% or less.
(§4) All experiments were performed in triplicate and repeated three times. Statistical analysis of data was conducted in GraphPad Prism 7.0 Software (GraphPad Software, Inc.) using Student’s t test. Statistical significance was set at P ≤ 0.05. Evaluation of LC50 values of each compound was done by built-in functions of GraphPad Prism (non-linear regression, curve fit, [Inhibitor] vs. normalized response - Variable slope).

[2] = test system: breast adenocarcinoma cells of MCF-7 line; test: Cytotoxicity, trypan blue exclusion assay, 24 h; details: Homo sapiens
Protocol: as §1, §2, §3, §4

[3] = test system: HCT-116 colon carcinoma cells; test: Cytotoxicity, trypan blue exclusion assay, 24 h; details: Homo sapiens
Protocol: as §1, §2, §3, §4

Jurkat T-leukemia cells = test: Cell cycle analysis, PI staining, FACS; format: cell-based, human; details: 30 µM, 24 h
Protocol: To reveal potential mechanisms of cell death induction, selected CK2-HDAC inhibitors were tested in a PI staining assay. […] However, this effect was masked for high doses of DMAT-hydroxamate derivatives (30 µM) due to their strong proapoptotic activity, leading to appearance of > 80% cells in pre-G1 phase (apoptotic). Thus, lower concentrations of 11b–d (2 µM and 5 µM) had to be addressed in order to observe their inhibitory effect on cell cycling. […] As G1/S cell arrest is considered a typical feature of HDAC inhibitors, including SAHA [79], the observed phenomenon is yet another confirmation of HDAC targeting by these novel dual inhibitors in cell culture.
Cell cycle of the analyzed cells was assessed according to protocol described by Walker et al.. After drug treatment, 2 × 10^6 cells were collected, pelleted by spinning at 1,000 rpm, 4 °C for five minutes, resuspended in 1 mL of cold PBS and fixed by adding drop by drop 4 mL of −20 °C absolute ethanol. On the next day, fixed cells were centrifuged again and cell pellets were resuspended in 1 mL of PBS. Then 100 µL of 200 µg/mL DNase-free, RNase A (Invitrogen, USA) was added to cell suspension and incubated at 37 °C for 30 minutes. After this 100 µL of 1 mg/mL propidium iodide was added to samples, which were incubated at room temperature for 5–10 min and then analyzed on FACScan flow cytometer (Becton Dickinson, USA). Cell cycle analysis was carried out using the Cytomation Summit Software v3.1 (Cytomation Inc., USA).

[4] = LC50 Values of Compounds for Cell Line, HEK293, Table 2, trypan blue, 24 h, M ± SD
[5] = LC50 values of compounds for cell line, HEK293, supplement Table 4S, M±SD
[6] = MCF7, 24 h, read-out: LC50 Values of Compounds for Cell Line, MCF-7
[7] = HCT-116, 24 h, read-out: LC50 Values of Compounds for Cell Line, HCT-116

T1 sequence (Q13547 whole entry): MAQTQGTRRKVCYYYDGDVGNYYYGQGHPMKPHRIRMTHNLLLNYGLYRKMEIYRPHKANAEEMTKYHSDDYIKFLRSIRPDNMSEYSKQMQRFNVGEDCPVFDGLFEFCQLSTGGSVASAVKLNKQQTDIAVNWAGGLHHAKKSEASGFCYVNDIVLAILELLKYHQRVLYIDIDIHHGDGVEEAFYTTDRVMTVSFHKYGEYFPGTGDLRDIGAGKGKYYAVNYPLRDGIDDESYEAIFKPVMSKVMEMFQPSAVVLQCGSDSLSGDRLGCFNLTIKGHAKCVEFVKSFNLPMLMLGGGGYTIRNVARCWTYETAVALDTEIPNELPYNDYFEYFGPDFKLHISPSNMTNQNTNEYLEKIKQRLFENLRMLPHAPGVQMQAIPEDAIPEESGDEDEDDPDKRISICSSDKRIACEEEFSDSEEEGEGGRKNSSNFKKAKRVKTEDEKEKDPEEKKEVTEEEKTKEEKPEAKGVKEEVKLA
T2 sequence (P68400 whole entry): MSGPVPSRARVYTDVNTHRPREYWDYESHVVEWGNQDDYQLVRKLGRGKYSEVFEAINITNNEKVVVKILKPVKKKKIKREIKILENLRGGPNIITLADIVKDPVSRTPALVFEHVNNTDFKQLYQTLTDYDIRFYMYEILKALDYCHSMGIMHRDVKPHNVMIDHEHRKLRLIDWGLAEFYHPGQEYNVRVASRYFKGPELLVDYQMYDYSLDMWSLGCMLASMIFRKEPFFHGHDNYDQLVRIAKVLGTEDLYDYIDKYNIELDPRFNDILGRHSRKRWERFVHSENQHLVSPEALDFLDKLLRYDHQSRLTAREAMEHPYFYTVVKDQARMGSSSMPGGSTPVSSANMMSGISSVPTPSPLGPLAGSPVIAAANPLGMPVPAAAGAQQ

| Compound | IC50 (human recombinant HDAC1) [µM] | IC50 (human recombinant CK2α) [µM] | CC50 at 24 h [1, 4] [µM] | CC50 at 24 h [1, 5] [µM] | CC50 [2, 6] [µM] | CC50 ([2]; MCF7, read-out: LC50 values of compounds for cell line, MCF-7) [µM] | CC50 [3, 7] [µM] | CC50 ([3]; HCT-116, read-out: LC50 values of compounds for cell line, HCT-116) [µM] | cells in pre-G1 phase (apoptotic) (Jurkat T-leukemia cells) |
| --- | --- | --- | --- | --- | --- | --- | --- | --- | --- |
| CN(C)c1nc2c(Br)c(Br)c(Br)c(Br)c2n1CCc1cn(CCC(=O)NO)nn1 [Compound 7c, N-Hydroxy-3-(4-(2-(4,5,6,7-tetrabromo-2-(dimethylamino)-1H-benzo[d]imidazol-1-yl)ethyl)-1H-1,2,3-triazol-1-yl)propanamide] | 13.3 | 12.5 | 42.7 ± 8.65 | 23.3 | 27.8 ± 6.06 | 15.7 | 16.9 ± 3.9 | 4.22 | increased insignificantly |
| O=C(NO)c1ccc(Cn2nc3c(Br)c(Br)c(Br)c(Br)c3n2)cc1 [Compound 15a, N-Hydroxy-4-((tetrabromo-2H-benzo[d][1,2,3]triazol-2-yl)methyl)benzamide] | 8.5 | 15 | 33.7 ± 7.52 | > 30 | 13.7 ± 2.67 |  | 8.67 ± 1.02 |  | increased insignificantly |
| CN(C)c1nc2c(Br)c(Br)c(Br)c(Br)c2n1Cc1ccc(C(=O)NO)cc1 [Compound 19, N-Hydroxy-4-((4,5,6,7-tetrabromo-2-(dimethylamino)-1H-benzo[d]imidazol-1-yl)methyl)benzamide] | 9.45 | 7.15 | 33.4 ± 11.8 | 24.5 | 13.6 ± 0.78 |  | 11.3 ± 1.01 |  | increased insignificantly |
